Tests used:
[1] = tested on: SRBC; assay: Hemolysis of SRBC; format: cell-based; settings: concentration necessary to achieve 50% hemolysis of SRBC
[2] = tested on: prenylation of Ras, RAP1A and HDJ2 (FTase, GGTase I); assay: Protein prenylation immunoblot (FTase and GGTase I activities) in MCF-7 cells; format: cell-based, human; settings: MCF7 cells, 3, 10 and 30 μM, 24 h
Experimental: It was first verified if ECO-4601 interferes with Ras processing by monitoring FTase and GGTase I activities by immunoblot analysis. For these experiments, exponentially growing MCF-7 (human breast tumor) cells were seeded in 60 mm cell culture dishes at a density of 2.5×10^6 cells per dish. After an 18 h incubation period, ECO-4601 or lovastatin (Sigma-Aldrich, St. Louis, Mo.) were added at a final concentration of 3, 10 and 30 μM for 24 h. Cells were also treated with the vehicle alone (0.05% DMSO) for the same incubation periods. Treated and control cells were lysed in ice-cold RIPA buffer (50 mM Tris-HCl pH 7.4, 1% Triton X-100, 1% deoxycholate, 0.1% SDS, 150 mM NaCl, and 1 mM EDTA) containing protease inhibitors (Roche, Mannheim, Germany) and phosphatase inhibitors (EMD Biosciences, Calbiochem, San Diego, Calif.) for 20 minutes on ice. After lysis, cell debris was removed by centrifugation at 12000×g for 10 min. […] Bound antibodies were detected using horseradish peroxidase-conjugated secondary antibodies (Jackson ImmunoResearch Laboratories Inc., West Grove, Pa.) for 1 h at room temperature in 0.5% skim milk-TBS, visualized by treating the membranes with enhanced chemiluminescence reagents (Millipore, Mississauga, ON, Canada) and exposing them to BioMax Light Films (Kodak, Mississauga, ON, Canada). […]

[3] = tested on: HT-29 (colorectal carcinoma); assay: In vitro cytotoxic activity (GI50, propidium iodide), HT-29; format: cell-based; settings: method (2), 96 hrs
Experimental: (§1) Procedures used for each series of tests are described below.
(§2) Compounds were dissolved at 10 mM in DMSO. […] The following day, propidium iodide was added to one of the two plates and fluorescence measured (Tz). […] Each compound was tested at each concentration and in triplicates. The equivalent cell number was determined after adding propidium iodide by measuring the signal by fluorescence (C for control).

[4] = tested on: SF268 (CNS); assay: In vitro cytotoxic activity (GI50, propidium iodide), SF-268; format: cell-based; settings: method (2), 96 hrs
Experimental: as §1, §2

[5] = tested on: PC-3 (prostate adenocarcinoma); assay: In vitro cytotoxic activity (GI50, propidium iodide), PC-3; format: cell-based, human; settings: method (2)
Experimental: as §1, §2

[6] = tested on: MDA-MB-231 (mammary gland adenocarcinoma); assay: In vitro cytotoxic activity (GI50, propidium iodide), MDA-MB-231; format: cell-based, human; settings: method (2), 96 hrs
Experimental: as §1, §2

[7] = biological target: T1, peripheral benzodiazepine receptor (PBR) (Rattus norvegicus, UniProt P16257); assay: In-house PBR binding assay ([3H]PK11195, rat heart mitochondrial membranes); settings: in-house radioligand-binding assay
T1 construct: CBR and PBR were obtained from rat brain and heart membrane-fractions, respectively; from tissue; host or cells: Wistar rat heart membranes

| SMILES | Hemolysis (ED50 μg/mL) [1] [µg/mL] | further results |
| --- | --- | --- |
| CC(=O)NC(C)(CCC=C(C)C)CCCC(C)=CCN1C(=O)c2cccc(O)c2Nc2c(O)cc(O)cc21 (stereo not shown) [Compound 92, 10-(7-acetamido-3,7,11-trimethyldodeca-2,10-dienyl)-4,6,8-trihydroxy-5,10-dihydro-dibenzo[b,e][1,4]diazepin-11-one] | >64 |  |
| COC(C)(CCC=C(C)C)CCC/C(C)=C/CN1C(=O)c2cccc(O)c2N(C)c2c(O)cc(O)cc21 (stereo not shown) [Compound 80, 10-(7-methoxy-3,7,11-trimethyldodeca-2,10-dienyl)-4,6,8-trihydroxy-5-methyl-5,10-dihydro-dibenzo[b,e][1,4]diazepin-11-one] | >64 |  |
| CC(C)=CCCC(C)(O)CCCC(C)=CCN1C(=O)c2cccc(O)c2Nc2c(O)cc(O)cc21 (stereo not shown) [Compound 89, 10-(7-hydroxy-3,7,11-trimethyldodeca-2,10-dienyl)-4,6,8-trihydroxy-5,10-dihydro-dibenzo[b,e][1,4]diazepin-11-one] | >64 |  |
| CCN1c2c(O)cccc2C(=O)N(CC=C(C)CCC=C(C)CCCC(C)(C)OC)c2cc(O)cc(O)c21 [Compound 85, 10-(11-methoxy-3,7,11-trimethyl-2,6-dodecadienyl)-4,6,8-trihydroxy-5-ethyl-5,10-dihydro-dibenzo[b,e][1,4]diazepin-11-one] | >64 |  |
| CC[C@H](C)C(=O)O[C@H]1C[C@@H](C)C=C2C=C[C@H](C)[C@H](CC[C@@H]3C[C@@H](O)CC(=O)O3)[C@H]21 [lovostatin, lovastatin, reference compound] |  | effect on protein prenylation (mobility shift of Ras, RAP1A and HDJ2) [2]: expected mobility shift |
| CC(C)CCCC(C)CCCC(C)CCN1C(=O)c2cccc(O)c2N(C)c2c(O)cc(O)cc21 (stereo not shown) [Compound 78, 10-(3,7,11-trimethyldodecyl)-4,6,8-trihydroxy-5-methyl-5,10-dihydro-dibenzo[b,e][1,4]diazepin-11-one] | 9.89 |  |
| CCCCCCN1c2c(O)cccc2C(=O)N(C/C=C(\C)CC/C=C(\C)CCC=C(C)C)c2cc(O)cc(O)c21 [Compound 67, 10-farnesyl-4,6,8-trihydroxy-5-n-hexyl-5,10-dihydro-dibenzo[b,e][1,4]diazepin-11-one] | >64 |  |
| CC(C)=CCC/C(C)=C/CC/C(C)=C/CN1C(=O)c2cccc(O)c2Nc2c1cc(O)c(Br)c2O [Compound 97, 10-(farnesyl)-7-bromo-4,6,8-trihydroxy-5,10-dihydro-dibenzo[b,e][1,4]diazepin-11-one] | 15.1 |  |
| COC(C)(CCC=C(C)C)CCC/C(C)=C/CN1C(=O)c2cccc(O)c2Nc2c(O)cc(O)cc21 (stereo not shown) [Compound 83] | 12.4 | GI50 [3]: 19.6 µM; GI50 [4]: 9.74 µM; GI50 ([5]; 96 hrs): 13.2 µM; GI50 [6]: 6.71 µM |
| CCC(C)N1c2c(O)cccc2C(=O)N(C/C=C(\C)CC/C=C(\C)CCC=C(C)C)c2cc(O)cc(O)c21 (stereo not shown) [Compound 77, 10-Farnesyl-4,6,8-trihydroxy-5-sec-butyl-5,10-dihydro-dibenzo[b,e][1,4]diazepin-11-one] | 60.9 |  |
| C/C(=C\CN1C(=O)c2cccc(O)c2Nc2c(O)cc(O)cc21)CC/C=C(\C)CCC1OC1(C)C (stereo not shown) [Compound 18] | >64 | GI50 ([5]; Homo sapiens, 96 h): > 30 µM |
| CC(C)=CCCC1(C)OC1CC/C(C)=C/CN1C(=O)c2cccc(O)c2Nc2c(O)cc(O)cc21 (stereo not shown) [Compound 17, 10-(3,7,11-trimethyl-6,7-epoxydodeca-2,10-dienyl)-4,6,8-trihydroxy-5,10-dihydro-dibenzo[b,e][1,4]diazepin-11-one] | 35.0 |  |
| CCN1c2c(O)cccc2C(=O)N(C/C=C(\C)CC/C=C(\C)CCC=C(C)C)c2cc(O)cc(O)c21 [Compound 14, 10-farnesyl-4,6,8-trihydroxy-5-ethyl-5,10-dihydro-dibenzo[b,e][1,4]diazepin-11-one] | 43.9 |  |
| [2H]C([2H])([2H])N1c2c(O)cccc2C(=O)N(C/C=C(\C)CC/C=C(\C)CCC=C(C)C)c2cc(O)cc(O)c21 [Compound 98, 10-Farnesyl-4,6,8-trihydroxy-5-(trideuteriomethyl)-5,10-dihydro-dibenzo[b,e][1,4]diazepin-11-one] | 4.5 |  |
| COC(C)(C)CCCC(C)=CCCC(C)=CCN1C(=O)c2cccc(O)c2Nc2c(O)cc(O)cc21 [Compound 82, 10-(11-methoxy-3,7,11-trimethyl-2,6-dodecadienyl)-4,6,8-trihydroxy-5,10-dihydro-dibenzo[b,e][1,4]diazepin-11-one] | >64 |  |
| COC(C)(C)CCCC(C)(CCCC(C)=CCN1C(=O)c2cccc(O)c2Nc2c(O)cc(O)cc21)OC (stereo not shown) [Compound 84, 10-(7,11-dimethoxy-3,7,11-trimethyl-2-dodecenyl)-4,6,8-trihydroxy-5,10-dihydro-dibenzo[b,e][1,4]diazepin-11-one] | >32 |  |
| CCCCN1c2c(O)cccc2C(=O)N(C/C=C(\C)CC/C=C(\C)CCC=C(C)C)c2cc(O)cc(O)c21 [Compound 64, 10-farnesyl-4,6,8-trihydroxy-5-n-butyl-5,10-dihydro-dibenzo[b,e][1,4]diazepin-11-one] | >64 |  |
| CC(C)=CCC/C(C)=C/CC/C(C)=C/CN1C(=O)c2cccc(O)c2N(C)c2c1cc(O)c(Br)c2O [Compound 99] |  | IC50 [7]: 0.01 µM |
| CCCN1c2c(O)cccc2C(=O)N(C/C=C(\C)CC/C=C(\C)CCC=C(C)C)c2cc(O)cc(O)c21 [Compound 63, 10-farnesyl-4,6,8-trihydroxy-5-n-propyl-5,10-dihydro-dibenzo[b,e][1,4]diazepin-11-one] | >64 |  |
| CCN1c2c(O)cccc2C(=O)N(CC=C(C)CCCC(C)(CCCC(C)(C)OC)OC)c2cc(O)cc(O)c21 (stereo not shown) [Compound 87, 10-(7,11-dimethoxy-3,7,11-trimethyl-2-dodecenyl)-4,6,8-trihydroxy-5-ethyl-5,10-dihydro-dibenzo[b,e][1,4]diazepin-11-one] | >64 |  |

Source: US20090062255A1, “TUMOR-TARGETING EVALUATION METHODOLOGY AND COMPOUNDS RELATED THERETO” (THALLION PHARMACEUTICALS INC., priority 2007, published 2009)
